pIC50, pKi: −log10 of the molar value. Read-outs that look alike come from different tables or passages of the source.
Key:
[1] = target: T1, hAT2R (Homo sapiens, UniProt P50052); assay type: binding
T1 sequence (P50052 1-363): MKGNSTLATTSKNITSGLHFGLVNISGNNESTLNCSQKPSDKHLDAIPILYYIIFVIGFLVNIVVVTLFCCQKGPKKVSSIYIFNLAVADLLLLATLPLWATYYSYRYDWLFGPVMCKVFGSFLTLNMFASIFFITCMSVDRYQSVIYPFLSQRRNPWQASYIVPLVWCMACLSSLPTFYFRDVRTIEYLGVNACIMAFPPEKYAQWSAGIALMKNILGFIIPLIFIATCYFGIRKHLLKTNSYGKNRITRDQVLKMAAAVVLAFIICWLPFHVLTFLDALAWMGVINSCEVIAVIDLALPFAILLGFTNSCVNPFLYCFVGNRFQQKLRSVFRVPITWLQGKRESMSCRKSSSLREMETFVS

[2] = target: T2, hAT1R (Homo sapiens, UniProt P30556); assay type: binding; conditions: read-out: % Inhibition of hAT1R at 10 μM
T2 sequence (P30556 1-359): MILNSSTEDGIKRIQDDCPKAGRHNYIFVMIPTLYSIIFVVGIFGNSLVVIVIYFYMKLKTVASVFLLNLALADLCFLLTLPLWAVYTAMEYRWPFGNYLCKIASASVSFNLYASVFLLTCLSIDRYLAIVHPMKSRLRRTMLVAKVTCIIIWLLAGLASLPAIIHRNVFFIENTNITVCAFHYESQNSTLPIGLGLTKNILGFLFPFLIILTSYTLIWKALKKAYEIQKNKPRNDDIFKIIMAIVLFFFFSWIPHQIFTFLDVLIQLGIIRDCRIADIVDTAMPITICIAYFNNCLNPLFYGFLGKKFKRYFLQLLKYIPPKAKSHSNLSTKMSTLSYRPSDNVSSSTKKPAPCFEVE

[3] = target: T2, hAT1R; assay: Assay 2: whole cell competition binding assay, HEK293 cells expressing AT1R
[4] = target: T1, hAT2R; assay: Assay 2: whole cell competition binding assay, HEK293 cells expressing AT2R

| Compound | pKi [1] | inhibition at 10 µM [2] | further results |
| --- | --- | --- | --- |
| CCCCOC(=O)NS(=O)(=O)c1sc(CC(C)C)cc1-c1ccc2c(c1)CN(C(C)=O)CC2 [Compound 87] | 6.57 | 45% |  |
| CCCCOC(=O)NS(=O)(=O)c1sc(CC(C)C)cc1-c1cccc2c1CN(C(C)=O)C2 [Compound 83] | < 5.82 | 15% | pIC50 [1]: < 5.52 |
| CCCCOC(=O)NS(=O)(=O)c1sc(CC(C)C)cc1-c1ccc2c(c1)CCN(C(C)=O)C2 [Compound 86, Butyl ((3‐(2‐acetyl‐1,2,3,4‐tetrahydroisoquinolin‐6‐yl)‐5‐isobutylthiophen‐2‐yl)sulfonyl)carbamate] | 7.25 | 34% | improvement of hAT2R affinity compared to C38 ([1]; versus C38): 5 fold; improvement of hAT2R affinity compared to amides C93 and C97 ([1]; versus C93 and C97): 2 fold; pIC50 [3]: < 5.00; pIC50 [4]: 6.09 |
| CCCCOC(=O)NS(=O)(=O)c1sc(CC(C)C)cc1-c1ccc(OC(F)(F)F)c(Cn2ccnc2)c1 [Compound 47] |  | 1.8% |  |
| CCOC(=O)NS(=O)(=O)c1sc(CC(C)C)cc1-c1ccc2c(c1)CN(C(=O)OCC)C2 [Compound 89] | 5.89 | 26% | drop in hAT2R affinity compared to compound 86 ([1]; versus 86): 20 fold; decrease in hAT2R affinity compared to methyl carbamate 92 ([1]; versus 92): ~5 fold |
| CCOC(=O)NS(=O)(=O)c1sc(CC(C)C)cc1-c1ccc2c(c1)CN(C(C)=O)C2 [Compound 88] | 6.06 | 7.7% |  |
| CCOC(=O)NS(=O)(=O)c1sc(CC(C)C)cc1-c1ccc2c(c1)CN(C)C(=O)C2 [Compound 94] | 5.89 | 1.5% |  |
| CCCCOC(=O)NS(=O)(=O)c1sc(CC(C)C)cc1-c1ccc2c(c1)CN(C(C)=O)C2 [Compound 85] | 6.44 | 7.5% |  |
